Results from patent publication EP1242084B1, “TREATMENT OF BREAST CARCINOMAS, ASTROCYTOMAS, MELANOMAS AND RELATED TUMORS” (priority 2000, dated 2001).

Legend:
[1] = test system: AML-3 patients; conditions: oral, alone; cited from earlier work
[2] = test system: HUMAN LEIOMYOMA CELLS; assay: Leiomyoma cell proliferation and viability, day 7 cell counts with Trypan Blue stain; assay type: cell-based; parameters: RECENT CELLS LEIOMYOMA: unit not given here; conditions: for RECENT CELLS LEIOMYOMA: day 7 (control 0.0 MG: 9.0)
Method: Leiomyoma tissues were obtained from several premenopausal women with symptomatic uterine fibroids at elective hysterectomy, and who were not receiving any hormonal or other drug therapy. The fibroid tissues were minced into 1 - 2 mm\# explants and placed in suitable DMEM supplemented with 10% bovine serum. The fibroid tissue was digested for 14 -18 hours at 37 degrees C in an incubator. After centrifugation, a resulting cell pellet was resuspended in DMEM and then placed in culture flasks.
Leiomyoma cells were plated in 100mm dishes (100,000 each dish) and allowed to attach overnight in DMEM plus 10% fetal bovine serum until they reached 80-90% confluence.

[3] = test system: human pro-myelocytic leukemia (HL-60 cells); assay: Inhibition of proliferation of HL-60 cells, Trypan Blue cell counts; assay type: cell-based; conditions: 1400 micrograms/ml
From the text: […] Five ml of each pirfenidone concentration, and of the control were placed into a T25 tissue culture flask along with 1X10^5 cells. Every day for 4 days an aliquote from each flask was taken out, then stained with Trypan Blue, and counts were repeated three times on each aliquote.

[4] = test system: human Burkitt's lymphoma (RAJI) cells; assay: Inhibition of proliferation of RAJI cells, MTS assay; assay type: cell-based; conditions: 900 mcg/ml, 72 hours, statistically significant, read-out: reduction in number of cells which were active
Method: To determine the inhibitory effect of pirfenidone concentrations on Burkitt's lymphoma (RAJI) cells, a MTS assay was used which incorporates a tetrazolium dye that measures the cellular conversion of the dye into a formazan product by the activation of NADH-generating dehydrogenases found in metabolically active cells.
(§1) • 1. 100 microl. of cells was seeded into 96 well plates at 1X10^5 cells/ml in media containing 100 mcg/ml, 300 mcg/ml and 900 mcg/ml of pirfenidone, as well as a pirfenidone-free media control. • 2. Cells were incubated at 37 degrees C, at 5.0% CO2 for 72 hours. • 3. After incubation a standard curve was made of 100 microliters of cells added to the plate at 5X10^5 cells/ml making 1:2 dilutions all the way down to a pre-set degree of dilution. • 4. 2.0 mls of the MTS solution was mixed with a 100 microliter of the PMS solution, and 20 microliters of this combined dye solution was added to each well and incubated at 37 degrees C, 5.0% CO2 for 3 hours. • 5. Subsequently the absorbance was read at 490 nm.

[5] = test system: human T-cell leukemia (JURKAT) cells; assay: Inhibition of proliferation of JURKAT cells, MTS assay; assay type: cell-based; conditions: 900 mcg/ml, 72 hours, statistically significant, read-out: reduction in number of cell which were active
Method: as §1, with “To determine the inhibitory effect of pirfenidone concentrations on human T-cell leukemia (JURKAT), a MTS assay was used which incorporates a tetrazolium dye that measures the cellular conversion of the dye into a formazan product by the activation of NADH-generating dehydrogenases found in metabolically active cells. Procedure: • 1.” for “• 1.”

Row | Structure (SMILES) | clinical outcome [1] | RECENT CELLS LEIOMYOMA ([2]; 0.01 MG/ML) | RECENT CELLS LEIOMYOMA ([2]; 0.1 MG/ML) | RECENT CELLS LEIOMYOMA ([2]; 0.3 MG/ML) | RECENT CELLS LEIOMYOMA ([2]; 1.0 MG/ML) | cytotoxicity at 1000 µg/mL ([2]; Homo sapiens, 168 h, read-out: percentage of dead leiomyoma cells) | inhibitory effect on proliferation ([2]; graded concentrations in the culture media, 7 days) | Inhibition of proliferation as well as deaths of cells [3] | inhibition at 900 µg/mL [4] | inhibition at 900 µg/mL [5]
1 | CC1=C(/C=C/C(C)=C/C=C/C(C)=C/C(=O)O)C(C)(C)CCC1 [All-trans-retinoic acid] | complete remission |  |  |  |  |  |  |  |  | 
2 | Cc1ccc(=O)n(-c2ccccc2)c1 [pirfenidone] |  | 8.0 | 10.0 | 6.0 | 16.0 | 16% | significant inhibitory effect | deaths of almost all cells | 45% | 75%
